US7238708B2, “Glucose sensor” (The Regents of the University of California, priority 2004, dated 2007)
Values joined by “and” are separate entries in the source; they are usually repeats but may differ in a detail not shown here. Identical values can stand only once. Like-named read-outs stand apart in the source and are kept apart here.

Key:
hSGLT3 [1] = target: T1, hSGLT3 (Homo sapiens, UniProt Q9NY91); experiment: two-electrode voltage-clamp, membrane potential of hSGLT3-expressing Xenopus oocytes; type: cell-based; details: for effect on the membrane potential: concentrations as high as 100 mM; for membrane depolarization: 5 mM sugar, Na+ buffer pH 7.5, single oocyte; for effect on the membrane potential (qualitative): exposure of hSGLT3 oocytes to sugar; for inhibition of glucose-induced membrane depolarization: 250 μM phlorizin
T1 construct: The complete hSGLT3 clone was created by ligation of this PCR product to the 3′-end of hSGLT3 at the HindIII site; expressed in transfected cells; host or cells: Xenopus laevis oocytes injected with hSGLT3 cRNA
T1 sequence (Q9NY91 1-659): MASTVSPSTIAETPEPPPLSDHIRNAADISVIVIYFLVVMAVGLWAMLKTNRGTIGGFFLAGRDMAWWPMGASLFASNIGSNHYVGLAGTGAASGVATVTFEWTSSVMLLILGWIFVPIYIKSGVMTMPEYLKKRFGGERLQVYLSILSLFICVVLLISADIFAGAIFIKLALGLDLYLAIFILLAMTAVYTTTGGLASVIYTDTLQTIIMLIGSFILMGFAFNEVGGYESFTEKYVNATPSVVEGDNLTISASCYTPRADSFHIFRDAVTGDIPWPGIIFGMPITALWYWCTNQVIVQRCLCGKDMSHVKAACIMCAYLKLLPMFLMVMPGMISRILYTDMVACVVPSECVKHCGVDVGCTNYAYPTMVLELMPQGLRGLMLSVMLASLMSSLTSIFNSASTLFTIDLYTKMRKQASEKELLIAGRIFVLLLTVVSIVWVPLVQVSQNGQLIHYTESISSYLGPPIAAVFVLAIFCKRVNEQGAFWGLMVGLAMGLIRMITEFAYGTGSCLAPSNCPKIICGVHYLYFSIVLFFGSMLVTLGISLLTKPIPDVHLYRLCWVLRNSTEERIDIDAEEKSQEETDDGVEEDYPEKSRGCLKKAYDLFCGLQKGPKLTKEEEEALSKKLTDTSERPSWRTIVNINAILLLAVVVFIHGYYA
Protocol: (§1) Expression of hSGLT3 in oocytes. Stage VI oocytes from Xenopus laevis (Nasco, Fort Atkinson, Wis.) were defolliculated and injected with hSGLT3 cRNA and maintained at 18° C. in modified Barth's medium containing gentamycin (5 mg/ml) and penicillin (100 units/ml)/streptomycin (100 μg/ml). Each oocyte was injected with 20 ng of cRNA. Experiments were performed at 22±1° C., 3-9 days after the injection.
(§2) Two electrode-voltage clamp. Oocytes expressing SGLTs and control oocytes were placed in the chamber, impaled with the two electrodes and continuously superfused with the required medium (Loo et al. (1998) Proc. Natl. Acad. Sci. USA 95:7789-7794). Membrane potential changes and ionic currents were measured when adding different sugar concentrations. Sugar-specific changes in current were the difference between the values measured with sugar and the preceding value in buffer alone. Na^+ buffer contained 100 mM NaCl, 2 mM KCl, 1 mM CaCl2, 1 mM MgCl2 and 10 mM HEPES/tris (pH 7.5). In Na^+-free buffer, choline Cl replaced NaCl, and for the experiments at pH 5.0 HEPES/tris was replaced with MES/tris. In some experiments at low pH we simultaneously recorded the intracellular pH of the oocyte using the fluorescent dye BCECF-AM (15, 16). The apparent affinity (K0.5) and apparent maximal current (Imax) were calculated with the equation [1]=Imax. [S]/(K0.5+[S]), using the non-linear fitting method in SigmaPlot (SPSS, Chicago, Ill.) where [S] is the sugar concentration. The results are illustrated by experiments on single oocytes, but each was representative of at least 3-8 different oocytes.
(§3) Using the techniques described above, a two-electrode voltage-clamp was used to monitor hSGLT3's electrical properties in Xenopus oocytes. The oocytes were exposed to candidate compounds, and the depolarization of membrane potential was recorded.

control cells = experiment: response of control cells to amino sugars; type: cell-based, Xenopus laevis; details: 30 mM
Protocol: as §2, with “The results are illustrated by experiments on single oocytes, but each was representative of at least 3-8 different oocytes.” left out
as §3

SGLT1 [2] = target: T2, SGLT1 (Homo sapiens, UniProt P13866); experiment: response of cells expressing SGLT1 to amino sugars; type: cell-based; set-up: expressed in transfected cells; host or cells: cells expressing SGLT1; Xenopus oocytes are inferred from 'Using the techniques described above'; details: 30 mM
T2 sequence (P13866 1-664): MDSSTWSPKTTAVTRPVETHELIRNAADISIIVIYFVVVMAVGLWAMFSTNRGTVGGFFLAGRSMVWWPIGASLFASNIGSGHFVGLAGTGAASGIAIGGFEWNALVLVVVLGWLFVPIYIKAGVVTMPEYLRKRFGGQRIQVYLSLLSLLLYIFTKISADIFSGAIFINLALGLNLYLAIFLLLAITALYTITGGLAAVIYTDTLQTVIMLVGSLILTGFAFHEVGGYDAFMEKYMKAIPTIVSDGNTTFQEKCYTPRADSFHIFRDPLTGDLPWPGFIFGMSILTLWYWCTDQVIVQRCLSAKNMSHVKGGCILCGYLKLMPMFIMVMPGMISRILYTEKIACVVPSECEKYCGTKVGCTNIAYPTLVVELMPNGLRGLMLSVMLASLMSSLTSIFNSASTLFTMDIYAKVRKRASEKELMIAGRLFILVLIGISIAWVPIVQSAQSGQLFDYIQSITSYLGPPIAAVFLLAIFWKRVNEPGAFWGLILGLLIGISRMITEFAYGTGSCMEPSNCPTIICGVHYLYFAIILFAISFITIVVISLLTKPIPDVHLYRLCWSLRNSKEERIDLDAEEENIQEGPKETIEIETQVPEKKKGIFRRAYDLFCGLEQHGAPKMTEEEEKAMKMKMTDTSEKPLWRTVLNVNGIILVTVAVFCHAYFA
Protocol: as §2, with “The results are illustrated by experiments on single oocytes, but each was representative of at least 3-8 different oocytes.” left out
as §3

hSGLT3 [3] = target: T1, hSGLT3; experiment: sugar-induced currents in hSGLT3-expressing oocytes under voltage clamp; type: cell-based
Protocol: as §1, §2

hSGLT3 [4] = target: T1, hSGLT3; experiment: simultaneous [14C]-glucose uptake and sugar-induced current in hSGLT3-expressing oocytes; type: cell-based
Protocol: as §1
(§4) Uptake experiments. Control oocytes or oocytes expressing a SGLT were superfused with a buffer solution containing either 100 mM NaCl or choline chloride at pH 7.5 or 5 while the plasma membrane potential was clamped at voltages between −50 and −110 mV. […] After the sugar was removed from the bathing solution the current returned to the baseline. The oocyte was washed, solubilized and glucose uptake determined using a scintillation spectrometer. Sugar-induced current was obtained by integrating the difference between baseline and the glucose-dependent current. The current, measured simultaneously with sugar uptake, was converted to its molar equivalent of univalent charge. [^14C]-glucose uptake in non-injected oocytes from the same batch of oocytes was used as a control.

pSGLT3 = target: T3, pSGLT3 (Sus scrofa, UniProt P31636); experiment: ratio of positive ion uptake and sugar uptake in pSGLT3-expressing oocytes; type: cell-based, pig
T3 construct: expressed in transfected cells; host or cells: Xenopus laevis oocytes expressing pig SGLT3
T3 sequence (P31636 1-660): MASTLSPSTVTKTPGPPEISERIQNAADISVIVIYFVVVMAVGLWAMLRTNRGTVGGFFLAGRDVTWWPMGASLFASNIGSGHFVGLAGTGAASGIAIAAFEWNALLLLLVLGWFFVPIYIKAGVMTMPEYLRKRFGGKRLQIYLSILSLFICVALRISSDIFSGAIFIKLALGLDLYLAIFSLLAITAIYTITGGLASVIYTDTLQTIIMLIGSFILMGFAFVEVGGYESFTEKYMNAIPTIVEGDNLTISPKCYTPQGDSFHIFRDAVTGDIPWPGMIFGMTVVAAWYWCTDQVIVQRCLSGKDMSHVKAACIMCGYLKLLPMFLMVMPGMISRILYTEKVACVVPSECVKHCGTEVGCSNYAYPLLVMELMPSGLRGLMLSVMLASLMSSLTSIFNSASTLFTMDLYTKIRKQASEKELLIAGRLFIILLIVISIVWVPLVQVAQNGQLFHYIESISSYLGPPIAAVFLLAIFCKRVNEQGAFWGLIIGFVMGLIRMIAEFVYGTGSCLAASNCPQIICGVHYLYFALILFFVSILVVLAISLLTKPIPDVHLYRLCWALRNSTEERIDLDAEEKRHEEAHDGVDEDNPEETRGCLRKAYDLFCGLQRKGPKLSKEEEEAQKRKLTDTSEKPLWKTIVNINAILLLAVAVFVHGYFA
Protocol: as §4

SGLT1 [5] = target: T2, SGLT1; set-up: host or cells: Xenopus laevis oocytes expressing hSGLT1; details: cited from earlier work
neuroendocrine cells = details: Na+-dependent and phlorizin-sensitive manner; cited from earlier work
guinea pig ileum = experiment: mechanical activity of guinea pig ileum
[6] = injected into the cerebrospinal fluid; cited from earlier work
[7] = test system: glucose-responsive neurons in the hypothalamus; details: cited from earlier work
[8] = 2 mM glucose, -70 mV, Na+ buffer pH 5

With `O=C(CO)[C@@H](O)[C@H](O)[C@H](O)CO` [D-fructose] the “effect on the membrane potential” value (hSGLT3 [1]) was “no effect”.

For `OC[C@H]1NC[C@H](O)[C@@H](O)[C@@H]1O` [Deoxynojirimycin], the EC50 (hSGLT3 [1]; range printed with mixed units (nanomolar to micromolar), read-out: affinities to activate SGLT2) was 0.0005 to 0.002 mM, the “effects on control cells” value (control cells) was “no effects” and the “effects on cells expressing SGLT1” value (SGLT1 [2]) was “no effects”.

For `O=C[C@H](O)[C@@H](O)[C@H](O)[C@H](O)CO` [D-glucose], the “depolarization of the membrane potential by phlorizin sensitive inward current” value (hSGLT3 [1]) was “up to 50 mV”, the membrane depolarization (hSGLT3 [1]) was “about 4 mV” and the ΔVmax (hSGLT3 [1]; 6 experiments) was 26±9 mV. The EC50 (hSGLT3 [1]; K0.5 (apparent affinity) of depolarization, 6 experiments, pH 7.5) was 60 mM and ~60 mM, the “effect on the membrane potential (qualitative)” value (hSGLT3 [1]) was “reversibly depolarized the membrane potential” and the “maximal depolarization (ΔVm)” value (hSGLT3 [1]; fit of a single oocyte (FIG. 4B)) was 23 mV. The “activation energy (Ea) of glucose-induced current” value (hSGLT3 [3]; pH 5, presence and absence of Na+, 10, 22 and 28° C., Arrhenius plots) was about 9 kcal/mol, the “cation uptake in hSGLT3 oocytes” value (hSGLT3 [4]; 2 mM D-glucose, 5 minutes, Na+ pH 5, n=5) was 81 ± 7 pmol and the “D-glucose uptake in hSGLT3 oocytes” value (hSGLT3 [4]; 2 mM D-glucose, 5 minutes, Na+ pH 5, n=5, control oocytes 11±0.6) was 11 ± 0.5 pmol. The “glucose uptake in hSGLT3 oocytes compared with control oocytes” value (hSGLT3 [4]; [8]) was “identical to that in control oocytes”, the “sugar dependent current equivalent to univalent positive charge” value (hSGLT3 [4]; [8]) was 81±7 pmol per 5 minutes and the “ratio positive charge / sugar uptake” value (pSGLT3; acidic pH, n=6) was 4.7±0.2. For the same compound, the “ratio positive charge / sugar uptake” value (pSGLT3; neutral pH, n=12) was 2.1±0.1, the “ratio positive ion uptake / sugar uptake” value (SGLT1 [5]; Na+ at neutral pH, n=4) was 2.1±0.04 and the “ratio positive ion uptake / sugar uptake” value (SGLT1 [5]; acidic pH in H+, n=7) was 2±0.1.

In the case of `CO[C@H]1O[C@H](CO)[C@@H](O)[C@H](O)[C@H]1O` [αMDG, α-methyl-D-glucopyranoside], the membrane depolarization (hSGLT3 [1]) is reported as “about 4 mV”, the “effect on the membrane potential (qualitative)” value (hSGLT3 [1]) is reported as “reversibly depolarized the membrane potential” and the “maximum current at saturating sugar concentration (Imax)” value (hSGLT3 [3]; -150 mV, Na+ buffer, n=5) is reported as 122±20 nA. The EC50 (hSGLT3 [3]; -150 mV, Na+ buffer, n=5, read-out: apparent sugar affinity (K0.5) of current) was 36 ± 6 mM, the Imax (hSGLT3 [3]; pH 5 in Choline Cl, four oocytes) was 2385±651 nA and the Imax (hSGLT3 [3]; pH 5 in NaCl, four oocytes) was 1725±99 nA. The EC50 (hSGLT3 [3]; pH 5 in NaCl, four oocytes, read-out: K0.5) was 41 ± 7 mM and the GLP-1 peptide secretion (neuroendocrine cells) was “stimulates GLP-1 peptide secretion”.

In the case of `O=C[C@H](O)[C@@H](O)[C@@H](O)[C@H](O)CO` [D-galactose], the membrane depolarization (hSGLT3 [1]) is reported as “no effect” and the “effect on the membrane potential” value (hSGLT3 [1]) is reported as “no effect”.

With `O=C(CCc1ccc(O)cc1)c1c(O)cc(O)cc1O[C@@H]1O[C@H](CO)[C@@H](O)[C@H](O)[C@H]1O` [phlorizin] the “block of the responses to the amino sugars” value (hSGLT3 [1]) was “blocked”, the “inhibition of glucose-induced membrane depolarization” value (hSGLT3 [1]) was “blocked” and the “inhibition of glucose-induced membrane depolarization” value (hSGLT3 [1]; listed as Phlorizin) was “inhibited the membrane depolarization”. The “block of the effect of glucose on mechanical activity of guinea pig ileum” value (guinea pig ileum) was “blocked”, the food intake [6] was “increases food intake” and the “glucose mediated increase in firing rate” value [7] was “blocks”.

With `O=C[C@H](O)C[C@H](O)[C@H](O)CO` [3-deoxy-D-glucose] the “effect on the membrane potential” value (hSGLT3 [1]) was “failed to affect the membrane potential”.

With `OC[C@@H](O)[C@@H](O)[C@H](O)[C@H](O)CO` [mannitol] the “effect on the membrane potential” value (hSGLT3 [1]) was “no effect”.

In the case of `CCN1C[C@H](O)[C@@H](O)[C@H](O)[C@H]1CO` [N-(n-ethyl)deoxynojirimycin], the “effects on control cells” value (control cells) is reported as “no effects” and the “effects on cells expressing SGLT1” value (SGLT1 [2]) is reported as “no effects”.
